In PMC9166766 (Experimental & Molecular Medicine, 2022):
No end group written: not given here.

Key:
[1] = tested on: calcineurin (CNA) phosphatase activity; experiment: Calcineurin cellular activity assay in Jurkat T cells; type: cell-based; settings: HA-mCherry-tagged peptides, PMA and ionomycin
Protocol: (§1) We measured calcineurin phosphatase activity in vitro using a calcineurin phosphatase assay kit (BML-AK804, Enzo Life Sciences, Farmingdale, NY, USA). We incubated GST or GST-tagged peptides with CNA for 30 min at room temperature and then followed the manufacturer’s instructions. To measure endogenous calcineurin phosphatase activity, we transiently transfected Jurkat T cells with CAG-HA-mCherry-peptides by electroporation. After 24 h, we pretreated the Jurkat T cells with FK506 for 1 h before activating them with PMA and ionomycin. Next, we washed the cells with TBS buffer (20 mM Tris, pH 7.2, 150 mM NaCl), resuspended them with lysis buffer from the calcineurin cellular activity assay kit (BML-AK816, Enzo Life Sciences), and kept them on ice for 30 min. We collected the lysate supernatant and removed free phosphate by gel filtration using the Desalting Column Resin included in the kit. Next, we followed the manufacturer’s instructions.
(§2) Jurkat T cells expressing only HA-mCherry were used as a negative control, and cells treated with FK506 were used as a positive control. d In vitro calcineurin phosphatase activity assays using purified GST-tagged peptides. Purified GST was used as a negative control. […] Statistical differences were determined using one-way ANOVA. *p < 0.05, NS nonsignificant, NC negative control.

[2] = design: method as in PMID 24319282; settings: ref [17]; cited from earlier work
Excerpt: FK506 and cyclosporin A, respectively cooperating with FKBP12 or cyclophilin, spatially hinder the substrates’ access to the active site of calcineurin, inhibiting its phosphatase activity[30],[31].

tNFATC2 nuclear import = experiment: Nuclear localization of EGFP-tNFATC2 by confocal microscopy in Jurkat T cells; type: cell-based; settings: 40 nM PMA and 1 μM ionomycin 4 h, FK506 0.5 μM, n = 10-12
Protocol: We transfected Jurkat T cells with the pCAG-EGFP-tNFATC2-IRES-mCherry-peptide by electroporation. After two days, we pretreated these cells with 0.5 μM FK506 for 30 min. Then, we treated them with 40 nM PMA and 1 μM ionomycin under culture conditions for 4 h. Before imaging by a confocal laser scanning microscope (Nikon, Tokyo, Japan), we treated the cells with 10 μg/ml Hoechst 33342 (Invitrogen, Waltham, MA, USA) to stain nuclei. Colocalization analysis of mCherry and Hoechst was performed with ImageJ and its plugin JACoP to measure the Manders coefficient[23],[24].
Scale bar, 50 μm e Nuclear-localized tNFATC2 was measured by calculating the colocalization ratio between Hoechst (M1) and EGFP (M2).

[3] = tested on: CNA (calcineurin catalytic subunit); experiment: In vitro peptide competition assay (GST-tagged peptide / His6-tagged CNA); type: binding; settings: competitor CABIN1-L-1; molar ratio GST-peptide to competitor 1:50 to 1:400
[4] = tested on: CABIN1 peptide threonine 9 phosphorylation; experiment: Phosphorylation of threonine 9 of the expressed peptide in Jurkat T cells (PXpTP western blot, LC-MS/MS); type: cell-based; settings: HA-mCherry-tagged peptide; western blot (PXpTP antibody) and LC-MS/MS
Excerpt: We lysed the cells in IP150 buffer and immunoprecipitated Flag- and HA-tagged proteins with Anti-FLAG ® M2 Affinity Gel (Sigma–Aldrich) and Pierce™ Anti-HA Agarose (Thermo Fisher Scientific), respectively. The composition of the buffer and the subsequent process was described previously. To quantify the western blot results, we measured the band areas using ImageJ (https://imagej.nih.gov/ij/).
We purified HA-mCherry-tagged CABIN1-L-1-2 peptides expressed in Jurkat T cells by immunoprecipitating 4 mg of lysates with Pierce™ Anti-HA Agarose. We eluted the bead-bound proteins by competition with 1 mg/ml HA peptide. After separation by SDS-PAGE and staining with Coomassie Brilliant Blue, we analyzed the purified proteins by LC-MS/MS (ProteomeTech, Inc., Seoul, Korea).
(§3) RU response units, NC negative control.
The phosphorylated threonine of the immunoprecipitated peptide with HA antibody was detected with [PXpTP] antibody. b In vitro kinase assays using purified GST-tagged CABIN1 peptide and PKC downstream kinases. c In vitro kinase assays using purified GST-tagged peptides and kinases included in the MAPK family. d Immunoprecipitation assays using Flag-MAPKs and HA-CABIN1 in HEK293T cells. e, f In vitro kinase assays using p38α and substituted CABIN1 peptides. g Jurkat T cells expressing HA-mCherry-tagged CABIN1 peptide were treated with 10 μM p38α inhibitors for 16 h. Immunoprecipitation was performed with HA antibody and detected by western blotting. h Phosphorylated threonine and peptide-bound CNA of g were measured using ImageJ, and the ratio of phosphorylation and calcineurin binding to the CABIN1 peptide was calculated (n = 6). […] Statistical differences were determined using one-way ANOVA. *p < 0.05, **p < 0.01, ***p < 0.001, CBB Coomassie Brilliant Blue, NC negative control.

[5] = Protein stability of HA-mCherry-VIVIT peptides in Jurkat T cells (western blot, FACS); type: cell-based; settings: mCherry-tagged, vs VIVIT 15-mer
Protocol: We quantified the expression of mCherry-tagged VIVIT peptides using LSRII (SORP) (Becton Dickinson, Franklin Lakes, NJ, USA). We analyzed the results with FlowJo (Tree Star, Inc., Ashland, OR, USA).
Protein expression l evels of VIVIT peptides were detected with HA antibody in Jurkat T cells expressing HA-mCherry -VIVIT peptides. c mCherry expression intensity and distribution
cells/sample) d mRNA expression level of mCherry was measured by qRT -PCR. (n=4) Values shown are the mean ± standard deviation. SE, short exposure, LE, long expo sure, NC, negative

[6] = tested on: NFAT transcriptional activity; experiment: NFAT-luc luciferase reporter assay in Jurkat T cells; type: cell-based; settings: GST-tagged peptides, 40 nM PMA and 1 μM ionomycin 8 h
Protocol: (§4) To measure the transcriptional activity of NFAT, we cotransfected Jurkat T cells with GST-tagged peptides and NFAT-luc by electroporation. After 24 h, we pretreated the cells with 0.5 μM FK506 for 1 h and then treated them with 40 nM PMA and 1 μM ionomycin for 8 h. For the mammalian two-hybrid assay, we cotransfected HEK293T cells with GAL4 DBD-tagged CABIN1, VIVIT, chimeric and substituted peptides, VP16 activation domain-tagged CNAβ2, and pG5-luc (luciferase reporter plasmid containing the GAL4-responsive promoter) for 24 h. We lysed the harvested cells with a luciferase assay lysis buffer (17 mM KH2PO4, 183 mM K2HPO4, pH 7.8, 0.2% [v/v] Triton X-100) and sonicated them briefly. We measured luciferase activity for each cell lysate using an Infinite M200 (Tecan, Männedorf, Switzerland). In addition, we confirmed the expression level of the transfected proteins by Western blotting.
as §3
(1 picture or pasted object on this page, not shown here)

p38α = experiment: In vitro kinase assay, p38α; type: biochemical; settings: GST-tagged peptide, 1 h, 30 °C, 50 μM ATP
Protocol: (§5) We used the purified GST-tagged peptides for the in vitro kinase assays with activated recombinant kinases obtained from Proqinase GmbH (Freiburg, Germany). We performed the kinase assays in reaction buffer (50 mM HEPES-NaOH, pH 7.5, 3 mM MgCl2, 3 mM MnCl2, 3 μM sodium orthovanadate, 1 mM dithiothreitol, 50 μM unlabeled ATP, 5 μCi ^32P-γ-ATP) for 1 h at 30 °C. We stopped the reaction by adding 5× sample buffer and separated the proteins using SDS-PAGE. The gel was stained with Coomassie Brilliant Blue, dried, and developed on X-ray film.
(§6) The phosphorylated threonine of the immunoprecipitated peptide with HA antibody was detected with [PXpTP] antibody. b In vitro kinase assays using purified GST-tagged CABIN1 peptide and PKC downstream kinases. c In vitro kinase assays using purified GST-tagged peptides and kinases included in the MAPK family. d Immunoprecipitation assays using Flag-MAPKs and HA-CABIN1 in HEK293T cells. e, f In vitro kinase assays using p38α and substituted CABIN1 peptides. g Jurkat T cells expressing HA-mCherry-tagged CABIN1 peptide were treated with 10 μM p38α inhibitors for 16 h. Immunoprecipitation was performed with HA antibody and detected by western blotting. h Phosphorylated threonine and peptide-bound CNA of g were measured using ImageJ, and the ratio of phosphorylation and calcineurin binding to the CABIN1 peptide was calculated (n = 6). […]

[7] = tested on: CNAβ2 (calcineurin catalytic subunit); experiment: Mammalian two-hybrid assay (VP16 AD-CNAβ2 and GAL4 DBD-peptides, pG5-luc) in HEK293T cells; type: cell-based
Protocol: as §4
A mammalian two-hybrid assay using these peptides was performed (bottom). The compositions of the transfected DNA are described in Supplementary Fig. 1a–c. All experiments were repeated three times and are presented as the mean ± standard deviation. […] SE short exposure, LE long exposure, NC negative control, WT wild-type.
NC negative control, WT wild-type.

JNK1 = experiment: In vitro kinase assay, JNK1; type: biochemical; settings: GST-tagged peptide, 1 h, 30 °C, 50 μM ATP
Protocol: as §5, §6

MKK4 = experiment: In vitro kinase assay, MKK4; type: biochemical; settings: GST-tagged peptide, 1 h, 30 °C, 50 μM ATP
Protocol: as §5, §6

[8] = tested on: calcineurin (CNA) phosphatase activity; experiment: In vitro calcineurin phosphatase activity assay; type: biochemical; settings: purified GST-tagged peptides with CNA 30 min room temperature
Protocol: as §1, §2

| Compound | calcineurin phosphatase activity in cells [1] | side effects [2] | proportion of nuclear-localized tNFATC2 (tNFATC2 nuclear import) | interference with interaction between GST-tagged VIVIT peptide and His6-tagged CNA [3] | threonine 9 phosphorylation in Jurkat T cells [4] | stability under physiological conditions vs full-length VIVIT peptide (15-mer) [5] | NFAT luciferase activity ([6]; n = 3) | inhibitory effect on NFAT luciferase relative to VIVIT peptide ([6]; n = 3, vs VIVIT peptide) | phosphorylation by p38α (p38α) | interaction with / binding affinity to CNA (mammalian two-hybrid) ([7]; CNAβ2, 24 h, repeated three times) | interaction with CNA, effect of 1 μM ionomycin ([7]; with or without 1 μM ionomycin) | phosphorylation by JNK1 (JNK1) | phosphorylation by MKK4 (MKK4) | calcineurin phosphatase activity in vitro [8] |
| --- | --- | --- | --- | --- | --- | --- | --- | --- | --- | --- | --- | --- | --- | --- |
| C=CC[C@@H]1/C=C(\C)C[C@H](C)C[C@H](OC)[C@H]2O[C@@](O)(C(=O)C(=O)N3CCCC[C@H]3C(=O)O[C@H](/C(C)=C/[C@@H]3CC[C@@H](O)[C@H](OC)C3)[C@H](C)[C@@H](O)CC1=O)[C@H](C)C[C@@H]2OC [FK506, reference compound] | decreased the phosphatase activity of CNA | nephrotoxicity, fibrogenesis, neurotoxicity, and diabetes | lowest |  |  |  |  |  |  |  |  |  |  |  |
| CABIN1-L-1-2: 10 amino acids from proline 2146 to proline 2155 of full-length CABIN1; expressed GST-, GAL4 DBD- or HA-mCherry-tagged (PEITVTPPTP; also: expressed GST-, GAL4 DBD- or HA-mCherry-tagged, end not given here) | did not |  | slightly higher | dose-dependently interfered with the interaction | observed threonine 9 phosphorylation | more stable than the full-length VIVIT peptide (15-mer) | repressed luciferase activity compared with the negative control | approximately four times stronger than that of the VIVIT peptide | phosphorylated | still bound to CNA | did not affect the interaction | phosphorylated | directly phosphorylate | did not reduce the phosphatase activity of CNA in vitro |
